For assay [1], the system named is peripheral blood CD4+ T cells. The assay can be described thus: IFN-γ ELISPOT, CD4+ T cell response to peptide-pulsed T2.DR4 cells. Type of assay: cell-based, human. Particulars: for Total Responses (CD4+ T cell, responding donors/donors evaluated): HLA-DR4+ normal donors; for CD4+ T Cell Response to Peptide on T2.DR4: control peptide subtracted, 0 = <1/100,000.
Assay [2] deals with peripheral blood CD4+ T cells. The assay can be described thus: IL-5 ELISPOT, CD4+ T cell response to peptide-pulsed T2.DR4 cells. Type of assay: cell-based, human. As to conditions: one HLA-DR4+ Stage I RCC patient, pre- vs. post-surgery.
In assay [3] the target is T1, EphA2 (Homo sapiens, UniProt P29317). Nature of the assay: Western blot of EphA2 in resected SLR24 lesions after B61-Ig. Type of assay: in vivo, C.B-17 scid/scid mice. More on the design: resected SLR24 lesions were obtained pre- and 24 h post-intratumoral injection with B61-Ig; from tissue; host or cells: SLR24 human RCC xenograft lesions resected from C.B-17 scid/scid mice. As to conditions: SLR24 tumors resected 24 hours after B61-Ig. The procedure:
(§1) Western Blot Analyses. Tumor cells were grown to 80-90% confluency, serum starved overnight, then treated with agonists where indicated. In addition, resected SLR24 lesions were obtained pre- and 24 h post-intratumoral injection with B61-Ig, as outlined below. Tumor samples were analyzed for EphA2 expression via Western blots using the rabbit anti-human EphA2 polyclonal antibody (clone: C-20), Santa Cruz Biotechnology, Inc., Santa Cruz, Calif.). In some experiments, samples were also analyzed for Axl (clone C-20, Santa Cruz Biotechnology, Santa Cruz, Calif.) protein content. Single tumor cell suspensions isolated from confluent tissue culture flasks or from the enzymatic digestion of resected lesions were lysed using 500·mu·l lysis buffer (1% Triton-X, […], 10 mM Tris pH 7.4, 1 mM EDTA, 0.2 mM SOV, 0.5% NP-40) in PBS containing protease inhibitors (Complete, Roche Diagnostic, Mannheim, Germany) for 30 min at 4° C. […]
Hu-SCID Tumor Model. […] Animals were evaluated every 3-4 days for tumor size, with tumor-free status noted on day 40 post-tumor inoculation. […]
EphA2 Agonist Treatment Enhances the efficacy of adoptively transferred anti-EphA2 CD8^+ T Cells in a Hu-SCID Tumor Model. […] Animals were evaluated every 3-4 days for tumor size, with tumor-free status noted on day 40 post-tumor inoculation. […]

A further assay deals with SLR24 tumors. Nature of the assay: Hu-SCID tumor model. Type of assay: in vivo, C.B-17 scid/scid mice.
In the next assay the test system is SLR24 RCC cells. The assay can be described thus: IFN-γ ELISPOT, recognition of SLR24 by anti-EphA2 CTL clone CL.142. The assay is classed as cell-based, human. Particulars: B61.Ig 30 μg/ml overnight, relative to untreated cells.
Assay [4] concerns the target T1, EphA2. The assay can be described thus: EphA2 immunoprecipitation and anti-phosphotyrosine Western blot. As to conditions: PC3 cells; B61.Ig 30 μg/ml or mAb208 8 μg/ml. The assay is classed as cell-based. The arrangement: endogenous in cells; host or cells: PC3 prostate carcinoma cells (A9, A10); SLR24 renal cell carcinoma cells (A10). The procedure: as §1, with “C. After centrifugation at 13,500×g for 20 minutes, the supernatant was mixed 1:1 with SDS-PAGE running buffer and proteins separated on 7.5% PAGE gels, prior to electro-blotting onto nitrocellulose membranes (Millipore, Bedford, Mass.).” for “C.”

Assay [5] concerns the target T1, EphA2. Nature of the assay: Western blot of EphA2 protein degradation in tumor cells. As to conditions: PC3 and SLR24 cells; 6 hours; B61.Ig 30 μg/ml or mAb208 8 μg/ml. The arrangement: PC3 (left panel) and SLR24 (right panel) cells were treated for 6 hours with either B61.Ig; endogenous in cells; host or cells: PC3 prostate carcinoma cells (A9, A10); SLR24 renal cell carcinoma cells (A10). The assay is classed as cell-based. A general note: In western blotting, separated proteins are transferred to a membrane and probed.

Where [6] appears, read: single therapy: B61-Ig 50 μg intratumoral d18 or 5×10^6 E883 T cells i.v. d19.

With “PIYMYSVCNVMSG (listed as Homo sapiens) [compound 63]”, the “Total Responses (CD4+ T cell, responding donors/donors evaluated)” value is 6/7 in assay [1] and “most prevalent” in assay [1] (listed as EphA63-75). Also, the “CD4+ T Cell Response to Peptide on T2.DR4” value in assay [1] (Normal Donor DR4-1) was 11 /100,000 T cells; in assay [1] (Normal Donor DR4-2), 36 /100,000 T cells; in assay [1] (Normal Donor DR4-3) it was 7 /100,000 T cells; in assay [1] (Normal Donor DR4-4), 0 /100,000 T cells; in assay [1] (Normal Donor DR4-5) it was 156 /100,000 T cells; in assay [1] (Normal Donor DR4-6), 121 /100,000 T cells. Also, in assay [1] (Normal Donor DR4-7), the “CD4+ T Cell Response to Peptide on T2.DR4” value is 48 /100,000 T cells. Further, in assay [1] (one HLA-DR4+ Stage I RCC patient, pre- vs. post-surgery), the “Change in Th1-type (IFN-γ) CD4+ T cell response post-surgery” value is reported as “increased post-treatment”. The “Change in Th2-type (IL-5) CD4+ T cell response post-surgery” value in assay [2] is on record as “significant reductions”.

B1: B61.Ig: chimeric protein consisting of the ligand binding domain of ephrin-A1 fused with the Fc portion of a mouse IgG antibody (protein)
chain: DRHTVFWNSSNPKFRNEDYTIHVQLNDYVDIICPHYEDHSVADAAMEQYILYLVEHEEYQLCQPQSKDQVRWQCNRPSAKHGPEKLSEKFQRFTPFTLGKEFKEGHSYYYISKPIHQHEDRCLRLKVTVSGKITHSPQAHDNPQEKRLAADDPEVRVLHSIGHS
modifications: left off: a dimerising Fc or GST
Turning to B1, the “EphA2 processing/degradation in situ” value with EphA2 [3] was “promoted EphA2 processing in situ”. Moreover, the “Benefit vs. B61-Ig treatment alone” value in the assay on SLR24 tumors (B61-Ig combined with CD8+ T cells specific for influenza matrix58-66, data not shown) is “no enhanced benefit”. In the assay with SLR24 tumors (combination: B61-Ig 50 μg intratumoral d18 plus 5×10^6 E883 anti-EphA2 CD8+ T cells i.v. d19, tumor-free status day 40), the “Resolution of disease (treated mice)” value is on record as 5/5. Moreover, in the assay with SLR24 tumors (setting [6]), the Animals cured result is “no animals were cured” and the SLR24 tumor growth entry is given as “delayed growth”. Further, in the assay on SLR24 RCC cells, the “CL.142 recognition of SLR24 (IFN-γ ELISPOT)” value was “significantly enhanced”. Besides, the “EphA2 phosphorylation (phosphotyrosine content)” value with EphA2 [4] is listed as “Induce EphA2 Phosphorylation”. In addition, the EphA2 protein degradation entry with EphA2 [5] is reported as “Degradation”.

These data come from US11787846B2, “EphA2 T-cell epitope agonists and uses therefore” (UNIVERSITY OF PITTSBURGH—OF THE COMMONWEALTH SYSTEM OF …, priority 2003, dated 2023).
